How the values were obtained:
Mus musculus [1] = organism: Mus musculus; experiment: Ability to inhibit tumor promoter-induced ornithine decarboxylase activity in mouse skin using 1.7 nM of protein; assay type: functional
Mus musculus [2] = organism: Mus musculus; experiment: Ability to inhibit tumor promoter-induced ornithine decarboxylase activity in mouse skin using 17 nM of protein; assay type: functional

Structure (SMILES)	ODC Activity (Mus musculus [1])	ODC Activity (Mus musculus [2])
C=CC(=O)OC1CCC(C)(C)C(/C=C/C(C)=C/C=C/C(C)=C/C(=O)O)=C1C (stereo unspecified)	3.5 (nM of CO2) 30min-1 (mg of protein)-1	2.4 (nM of CO2) 30min-1 (mg of protein)-1
CC1=C(/C=C/C(C)=C/C=C/C(C)=C/C(=O)O)C(C)(C)CCC1OC(=O)CBr (stereo unspecified)	2.3 (nM of CO2) 30min-1 (mg of protein)-1	2.5 (nM of CO2) 30min-1 (mg of protein)-1
CC1=C(/C=C/C(C)=C/C=C/C(C)=C/C(=O)O)C(C)(C)CCC1 [TRETINOIN]	2 (nM of CO2) 30min-1 (mg of protein)-1	1.9 (nM of CO2) 30min-1 (mg of protein)-1
